The results in this text go back to ChEMBL document CHEMBL1201862, “PubChem BioAssay data set” (2004).

Some test systems named below: DMS-114; DMS-273; HCT-15; HOP-62; HOP-92; LOX IMVI; MOLT-4; Malme-3M; NCI-H23; OVCAR-3; RPMI-8226; SN12C; SW-620; TK-10; UACC-257; UO-31; RXF 393; Hs-578T; PC-3.
Holding throughout (experiment): inhibition of tumour cell growth, NCI panel, 48 h

SMILES strings stand for the structures.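 Step 1: Grow cells in 96-well plates. Step 2: Expose to compound for 48 hours at 5 concentrations. Step 3: Interpolate endpoints linearly; if unreached, use highest concentration. The concentration for 50% growth inhibition is given as GI50.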 Active and inactive are the calls of the source. Rule as the data show it: active = GI50 up to about 1.1 µM and inactive = higher.

Consider `Cc1ccc(S(=O)(=O)c2c(N)c3nccn3c3nc4ccccc4nc23)cc1`, for which the GI50 is > 100 µM (inactive) with DMS-114; 81.1 µM (inactive) in the assay on DMS-273; above 100 µM with HCT-15; 81.7 µM (inactive) in the assay with HOP-62; > 100 µM (inactive) with HOP-92; > 100 µM (inactive) in the assay on LOX IMVI. In addition, the GI50 in the assay with MOLT-4, with Malme-3M, in the assay on NCI-H23, in the assay with OVCAR-3, in the assay on RPMI-8226 and in the assay with SN12C was > 100 µM (inactive) each time. For the same compound, the GI50 is > 100 µM (inactive) in the assay on SW-620, 69.8 µM (inactive) in the assay on TK-10, > 100 µM (inactive) in the assay on UACC-257 and > 100 µM (inactive) in the assay on UO-31.

For the compound `O=C1c2ccccc2C2(O)Oc3cccc(O)c3C12O` (configuration not stated), the GI50 in the assay on DMS-114 is > 100 µM (inactive); in the assay with DMS-273 it was > 100 µM (inactive); in the assay on HCT-15 it was above 100 µM; with HOP-62, > 100 µM (inactive); with HOP-92, > 100 µM (inactive); in the assay on LOX IMVI, > 100 µM (inactive). Also, the GI50 with MOLT-4, in the assay with Malme-3M, with NCI-H23, with OVCAR-3, with RPMI-8226 and in the assay on SN12C was > 100 µM (inactive) throughout. In addition, the GI50 in the assay with SW-620, in the assay with TK-10, in the assay on UACC-257 and with UO-31 was > 100 µM (inactive) each time.

Regarding `CCOC(=O)NN1C(=O)C(=P(c2ccccc2)(c2ccccc2)c2ccccc2)C(C(=O)OCC)=C1C`, the GI50 with DMS-273 is > 100 µM (inactive); in the assay with HCT-15, above 100 µM; with HOP-62 it was > 100 µM (inactive); in the assay with HOP-92, > 100 µM (inactive); in the assay with LOX IMVI, > 100 µM (inactive); with MOLT-4 it was > 100 µM (inactive). The GI50 in the assay on Malme-3M, with NCI-H23, in the assay with OVCAR-3, with RPMI-8226, in the assay on RXF 393 and in the assay with SN12C was > 100 µM (inactive) throughout. For the same compound, the GI50 with SW-620, in the assay on TK-10, with UACC-257 and in the assay on UO-31 was > 100 µM (inactive) throughout.

For the compound `O=C1CNNC(Cn2nc(-c3ccccc3)c3ccccc3c2=O)=N1`, the GI50 in the assay with DMS-114 was > 100 µM (inactive); in the assay with DMS-273, > 100 µM (inactive); with HCT-15, above 100 µM; in the assay with HOP-62, > 100 µM (inactive); in the assay on HOP-92, > 100 µM (inactive); with MOLT-4, > 100 µM (inactive). The GI50 in the assay on Malme-3M, in the assay on NCI-H23, with OVCAR-3, with RPMI-8226, in the assay on SN12C and in the assay on SW-620 was > 100 µM (inactive) in each case. Besides, the GI50 with TK-10, in the assay with UACC-257 and in the assay with UO-31 was > 100 µM (inactive) each time.

For the compound `CSc1nc2c(nc(N)n2C2OCC(O)C(O)C2O)c(=O)n1C` (configuration not stated), the GI50 in the assay with DMS-114, in the assay on HOP-62, in the assay on HOP-92, with LOX IMVI, in the assay on MOLT-4 and in the assay with Malme-3M was > 100 µM (inactive) throughout. Also, the GI50 with NCI-H23, in the assay on OVCAR-3, in the assay on RXF 393, in the assay with SN12C, with SW-620 and in the assay with TK-10 was > 100 µM (inactive) throughout. The GI50 with UACC-257 and in the assay on UO-31 was > 100 µM (inactive) throughout.

`COc1ccc(NC(=O)CC(=O)N/N=C/c2ccc(N(CCC#N)S(=O)(=O)c3ccccc3)cc2)cc1`: the GI50 with DMS-114 was > 100 µM (inactive); with HCT-15 it was above 100 µM; with HOP-62, > 100 µM (inactive); in the assay with HOP-92, > 100 µM (inactive); in the assay on LOX IMVI, > 100 µM (inactive); with MOLT-4, > 100 µM (inactive). The GI50 in the assay with Malme-3M, in the assay on NCI-H23, with OVCAR-3, in the assay with RPMI-8226, in the assay with SW-620 and in the assay on TK-10 was > 100 µM (inactive) in each case. The GI50 with UACC-257 and in the assay with UO-31 was > 100 µM (inactive) throughout.

Regarding `CC[C@@]1(O)C[C@H](OC2CC(N(C)C)C(OC3CC(O)C(OC4CCC(=O)C(C)O4)C(C)O3)C(C)O2)c2c(cc3c(c2O)C(=O)c2c(O)ccc(O)c2C3=O)[C@H]1C(=O)OC` (some centres not stated), the GI50 is < 1e-05 µM (active) in the assay with DMS-273; 9.75e-05 µM with HCT-15; 8.75e-05 µM (active) in the assay with HOP-62; 0.0008 µM (active) in the assay on HOP-92; 0.00366 µM (active) in the assay on Hs-578T; 2e-05 µM (active) in the assay with LOX IMVI. Also, the GI50 in the assay on MOLT-4 is 3.55e-05 µM (active); in the assay with Malme-3M, 9.06e-05 µM (active); in the assay on NCI-H23 it was 0.00157 µM (active); in the assay with OVCAR-3, 0.000233 µM (active); with PC-3 it was 0.000395 µM (active); in the assay on RPMI-8226, 7.83e-05 µM (active). Also, the GI50 is 0.000344 µM (active) in the assay on RXF 393; 4.18e-05 µM (active) with SN12C; 5.2e-05 µM (active) with SW-620; 0.00152 µM (active) with TK-10; 0.00202 µM (active) in the assay on UACC-257; 4.22e-05 µM (active) in the assay with UO-31.

Take `O=C(O)CCSCCCN1C(=O)c2ccccc2C1=O`: the GI50 was > 100 µM (inactive) in the assay with DMS-114; above 100 µM with HCT-15; > 100 µM (inactive) with HOP-92; > 100 µM (inactive) in the assay on MOLT-4; > 100 µM (inactive) with Malme-3M; > 100 µM (inactive) with NCI-H23. Also, the GI50 in the assay on OVCAR-3, with RPMI-8226, in the assay on RXF 393, in the assay on SN12C, in the assay on SW-620 and in the assay with TK-10 was > 100 µM (inactive) each time. The GI50 in the assay with UACC-257 and with UO-31 was > 100 µM (inactive) throughout.

For `O=C(Nc1cc(Cl)c(Cl)cc1Cl)C(=O)C(C(=O)c1ccc2ccccc2c1)C1OC(=O)c2ccccc21` (configuration not stated), the GI50 is 9.2 µM (inactive) in the assay with DMS-114; 17.3 µM with HCT-15; 16.1 µM (inactive) in the assay with HOP-62; 1.96 µM (inactive) in the assay on HOP-92; 15.5 µM (inactive) in the assay with LOX IMVI; 13.2 µM (inactive) in the assay on Malme-3M. Besides, the GI50 was 3.66 µM (inactive) in the assay with NCI-H23; 16.3 µM (inactive) with OVCAR-3; 11.9 µM (inactive) in the assay with RPMI-8226; 3.95 µM (inactive) with RXF 393; 18.2 µM (inactive) in the assay on SN12C; 10.8 µM (inactive) with SW-620. Also, the values for the GI50 with UACC-257 and with UO-31 were 14.4 µM (inactive) and 18 µM (inactive), respectively.
